Laboratory results published in ChEMBL document CHEMBL1131172 (J Med Chem, 1998).

Experiments:
NCI-H460 [1] = assay: Inhibition of the growth of non-small-cell lung cancer (NCI-H460) cell line at 0.01 uM; format: functional; conditions: Homo sapiens
RPMI-8226 [2] = assay: inhibition of the growth of leukemia (RPMI-8226) cell line; format: functional; conditions: Homo sapiens
IGROV-1 [3] = assay: inhibition of the growth of ovarian cancer(IGROVI) cell line; format: functional; conditions: Homo sapiens
786-0 = assay: inhibition of the growth of renal cancer(786-0) cell line; format: functional; conditions: Homo sapiens
SNB-19 [4] = assay: inhibition of the growth of CNS cancer(SNB-19) cell line; format: functional; conditions: Homo sapiens
HCT-15 [5] = assay: inhibition of the growth of colon cancer(HCT-15) cell line; format: functional; conditions: Homo sapiens
MDA-N [6] = assay: inhibition of the growth of breast cancer(MDA-N) cell line; format: functional; conditions: Homo sapiens
HCT-116 [7] = assay: Inhibition of the growth of colon cancer(HCT116) cell line at 0.01 uM; format: functional; conditions: Homo sapiens
M14 = assay: inhibition of the growth of melanoma cancer (M14) cell line; format: functional; conditions: Homo sapiens
NCI-H23 [8] = assay: inhibition of the growth of non-small-cell lung cancer (NCI-H23) cell line; format: functional; conditions: Homo sapiens
UO-31 [9] = assay: inhibition of the growth of renal cancer(UO-31) cell line; format: functional; conditions: Homo sapiens
NCI-H322M = assay: inhibition of the growth of non-small-cell lung cancer (NCI-H322M) cell line; format: functional; conditions: Homo sapiens
UO-31 [10] = assay: inhibition of the growth of renal cancer(UO-31) cell line at 0.01 uM; format: functional; conditions: Homo sapiens
SK-MEL-5 [11] = assay: inhibition of the growth of melanoma cancer (SK-MEL-5) cell line; format: functional; conditions: Homo sapiens
Dihydrofolate reductase [12] = molecular target: T1, Dihydrofolate reductase (Pneumocystis carinii, UniProt P16184)
T1 sequence (P16184 whole entry): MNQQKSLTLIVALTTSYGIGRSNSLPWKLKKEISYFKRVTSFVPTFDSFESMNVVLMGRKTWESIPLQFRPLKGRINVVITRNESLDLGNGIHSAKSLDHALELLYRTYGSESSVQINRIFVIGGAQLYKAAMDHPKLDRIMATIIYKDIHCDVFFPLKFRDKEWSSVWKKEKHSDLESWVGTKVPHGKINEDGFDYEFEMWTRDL
Description: Inhibitory activity against dihydrofolate reductase (DHFR) from Pneumocystis carinii

SF-295 [13] = assay: Inhibition of the growth of CNS cancer(SF-295) cell line at 0.01 uM; format: functional; conditions: Homo sapiens
SF-268 [14] = assay: Inhibition of the growth of CNS cancer(SF-268) cell line at 0.01 uM; format: functional; conditions: Homo sapiens
A549 [15] = assay: inhibition of the growth of non-small-cell lung cancer (A549/ATCC) cell line; format: functional; conditions: Homo sapiens
DU-145 = assay: inhibition of the growth of prostate cancer(DU-145) cell line; format: functional; conditions: Homo sapiens
[16] = molecular target: T2, Bifunctional dihydrofolate reductase-thymidylate synthase (Toxoplasma gondii, UniProt Q07422)
T2 sequence (Q07422 whole entry): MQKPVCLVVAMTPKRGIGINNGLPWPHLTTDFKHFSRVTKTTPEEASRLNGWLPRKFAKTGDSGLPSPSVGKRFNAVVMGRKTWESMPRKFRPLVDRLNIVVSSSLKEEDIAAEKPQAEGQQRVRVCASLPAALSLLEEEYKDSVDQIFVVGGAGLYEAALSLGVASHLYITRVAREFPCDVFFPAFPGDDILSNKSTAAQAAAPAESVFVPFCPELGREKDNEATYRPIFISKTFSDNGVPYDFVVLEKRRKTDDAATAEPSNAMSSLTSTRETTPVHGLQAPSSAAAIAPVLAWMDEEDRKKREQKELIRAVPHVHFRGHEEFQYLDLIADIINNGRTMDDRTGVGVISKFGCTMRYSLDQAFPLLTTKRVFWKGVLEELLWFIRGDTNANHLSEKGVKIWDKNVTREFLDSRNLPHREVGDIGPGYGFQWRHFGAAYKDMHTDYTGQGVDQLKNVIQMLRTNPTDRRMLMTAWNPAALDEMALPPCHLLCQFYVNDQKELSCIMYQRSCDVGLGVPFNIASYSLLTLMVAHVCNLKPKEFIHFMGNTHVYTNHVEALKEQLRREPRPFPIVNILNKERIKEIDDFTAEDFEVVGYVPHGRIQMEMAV
Description: Inhibitory activity against dihydrofolate reductase (DHFR) from Toxoplasma gondii

SNB-19 [17] = assay: Inhibition of the growth of CNS cancer(SNB-19) cell line at 0.01 uM; format: functional; conditions: Homo sapiens
NCI-H23 [18] = assay: Inhibition of the growth of non-small-cell lung cancer (NCI-H23) cell line at 0.01 uM; format: functional; conditions: Homo sapiens
MDA-N [19] = assay: Inhibition of the growth of breast cancer(MDA-N) cell line at 0.01 uM; format: functional; conditions: Homo sapiens
OVCAR-8 [20] = assay: inhibition of the growth of ovarian cancer(OVCAR-8) cell line; format: functional; conditions: Homo sapiens
RPMI-8226 [21] = assay: Inhibition of the growth of leukemia (RPMI-8226) cell line at 0.01 uM; format: functional; conditions: Homo sapiens
CAKI-1 = assay: inhibition of the growth of renal cancer(CAKI-1) cell line; format: functional; conditions: Homo sapiens
SF-295 [22] = assay: inhibition of the growth of CNS cancer(SF-295) cell line; format: functional; conditions: Homo sapiens
SF-268 [23] = assay: inhibition of the growth of CNS cancer(SF-268) cell line; format: functional; conditions: Homo sapiens
MOLT-4 = assay: inhibition of the growth of leukemia (MOLT-4) cell line; format: functional; conditions: Homo sapiens
SF-539 = assay: inhibition of the growth of CNS cancer(SF-539) cell line; format: functional; conditions: Homo sapiens
SK-MEL-5 [24] = assay: Inhibition of the growth of melanoma cancer (SK-MEL-5) cell line at 0.01 uM; format: functional; conditions: Homo sapiens
HCT-116 [25] = assay: inhibition of the growth of colon cancer(HCT116) cell line; format: functional; conditions: Homo sapiens
NCI-H460 [26] = assay: inhibition of the growth of non-small-cell lung cancer (NCI-H460) cell line; format: functional; conditions: Homo sapiens
NCI-H522 = assay: inhibition of the growth of non-small-cell lung cancer (NCI-H522) cell line; format: functional; conditions: Homo sapiens
MCF7 = assay: inhibition of the growth of breast cancer (MCF-7) cell line; format: functional; conditions: Homo sapiens
HCT-15 [27] = assay: Inhibition of the growth of colon cancer(HCT-15) cell line at 0.01 uM; format: functional; conditions: Homo sapiens
KM12 = assay: inhibition of the growth of colon cancer(KM-12) cell line; format: functional; conditions: Homo sapiens
SR = assay: inhibition of the growth of leukemia(SR) cell line; format: functional; conditions: Homo sapiens
A549 [28] = assay: Inhibition of the growth of non-small-cell lung cancer (A549/ATCC) cell line at 0.01 uM; format: functional; conditions: Homo sapiens
NCI/ADR-RES = assay: inhibition of the growth of breast cancer (MCF7/ADR-RES) cell line; format: functional; conditions: Homo sapiens
OVCAR-8 [29] = assay: Inhibition of the growth of ovarian cancer(OVCAR-8) cell line at 0.01 uM; format: functional; conditions: Homo sapiens
Dihydrofolate reductase [30] = molecular target: T3, Dihydrofolate reductase (Rattus norvegicus, UniProt Q920D2)
T3 sequence (Q920D2 whole entry): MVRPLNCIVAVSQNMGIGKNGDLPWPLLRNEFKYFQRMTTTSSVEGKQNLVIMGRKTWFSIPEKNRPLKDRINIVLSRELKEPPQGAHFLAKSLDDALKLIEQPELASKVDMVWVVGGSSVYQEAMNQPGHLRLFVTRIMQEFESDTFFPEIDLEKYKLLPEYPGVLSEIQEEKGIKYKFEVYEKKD
Description: Inhibitory activity against dihydrofolate reductase (DHFR) from rat liver

MDA-MB-435 [31] = assay: Inhibition of the growth of breast cancer (MDA-MB-435) cell line at 0.01 uM; format: functional; conditions: Homo sapiens
MDA-MB-435 [32] = assay: inhibition of the growth of breast cancer (MDA-MB-435) cell line; format: functional; conditions: Homo sapiens
IGROV-1 [33] = assay: Inhibition of the growth of ovarian cancer(IGROVI) cell line at 0.01 uM; format: functional; conditions: Homo sapiens

`COc1cc(N(C)c2ccc3nc(N)nc(N)c3n2)cc(OC)c1OC` was tested, and the inhibition at 0.01 µM (NCI-H460 [1]) was 79%, the GI50 (RPMI-8226 [2]) was < 10 nM and the GI50 (IGROV-1 [3]) was < 10 nM. For the same compound, the GI50 (786-0) was 20 nM, the GI50 (SNB-19 [4]) was < 10 nM and the GI50 (HCT-15 [5]) was < 10 nM. For the same compound, the GI50 (MDA-N [6]) was < 10 nM, the inhibition at 0.01 µM (HCT-116 [7]) was 76% and the GI50 (M14) was 20 nM. The GI50 (NCI-H23 [8]) was < 10 nM, the GI50 (UO-31 [9]) was < 10 nM and the GI50 (NCI-H322M) was 11000 nM. For the same compound, the inhibition at 0.01 µM (UO-31 [10]) was 65%, the GI50 (SK-MEL-5 [11]) was < 10 nM and the IC50 (Dihydrofolate reductase [12]) was 21 nM. The inhibition at 0.01 µM (SF-295 [13]) was 53%, the inhibition at 0.01 µM (SF-268 [14]) was 61% and the GI50 (A549 [15]) was < 10 nM. For the same compound, the GI50 (DU-145) was 220 nM, the IC50 [16] was 7.6 nM and the inhibition at 0.01 µM (SNB-19 [17]) was 53%. The inhibition at 0.01 µM (NCI-H23 [18]) was 51%, the inhibition at 0.01 µM (MDA-N [19]) was 58% and the GI50 (OVCAR-8 [20]) was < 10 nM. The inhibition at 0.01 µM (RPMI-8226 [21]) was 56%, the GI50 (CAKI-1) was 10 nM and the GI50 (SF-295 [22]) was < 10 nM. For the same compound, the GI50 (SF-268 [23]) was < 10 nM, the GI50 (MOLT-4) was 40 nM and the GI50 (SF-539) was 20 nM. For the same compound, the inhibition at 0.01 µM (SK-MEL-5 [24]) was 60%, the GI50 (HCT-116 [25]) was < 10 nM and the GI50 (NCI-H460 [26]) was < 10 nM. The GI50 (NCI-H522) was 30 nM, the GI50 (MCF7) was 40 nM and the inhibition at 0.01 µM (HCT-15 [27]) was 57%. The GI50 (KM12) was 40 nM, the GI50 (SR) was 30 nM and the inhibition at 0.01 µM (A549 [28]) was 67%. The GI50 (NCI/ADR-RES) was 10 nM, the inhibition at 0.01 µM (OVCAR-8 [29]) was 57% and the IC50 (Dihydrofolate reductase [30]) was 3.7 nM. For the same compound, the inhibition at 0.01 µM (MDA-MB-435 [31]) was 56%, the GI50 (MDA-MB-435 [32]) was < 10 nM and the inhibition at 0.01 µM (IGROV-1 [33]) was 52%.
